Experimental data reported in PubChem BioAssay AID256 (DTP/NCI, 2004).
“And” between values parts separate entries of the source, which are not always exact repeats. Equal values may be shown once. Toxic doses and inconclusive results are not listed.

System: CD2F1 mice, L1210 leukemia ip, survival T/C
Experiment: NCI In Vivo Anticancer Drug Screen. Data for tumor model L1210 Leukemia (intraperitoneal) in CD2F1 (CDF1) mice
Details: higher = longer survival
Summary of the method: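 Ratio T/C, where T is the treated-group value and C the vehicle-dosed control value, from mice implanted with a transplantable tumor.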

[1] = endpoint: mean survival time, dose: 50.0 mg/kg/injection, schedule: Q01DX009 (ip), vehicle: saline
[2] = endpoint: mean survival time, dose: 100.0 mg/kg/injection, schedule: Q01DX001 (ip), vehicle: saline with Tween-80
[3] = endpoint: mean survival time, dose: 200.0 mg/kg/injection, schedule: Q01DX001 (ip), vehicle: saline with Tween-80
[4] = endpoint: mean survival time, dose: 400.0 mg/kg/injection, schedule: Q01DX001 (ip), vehicle: saline with Tween-80
[5] = endpoint: mean survival time, dose: 100.0 mg/kg/injection, schedule: Q04DX003 (ip), vehicle: saline
[6] = endpoint: mean survival time, dose: 200.0 mg/kg/injection, schedule: Q04DX003 (ip), vehicle: saline
[7] = endpoint: mean survival time, dose: 100.0 mg/kg/injection, schedule: Q04DX003 (ip), vehicle: saline with Tween-80
[8] = endpoint: mean survival time, dose: 200.0 mg/kg/injection, schedule: Q04DX003 (ip), vehicle: saline with Tween-80
[9] = endpoint: mean survival time, dose: 400.0 mg/kg/injection, schedule: Q04DX003 (ip), vehicle: saline with Tween-80
[10] = endpoint: mean survival time, dose: 100.0 mg/kg/injection, schedule: Q04DX002 (ip), vehicle: saline with Tween-80
[11] = endpoint: mean survival time, dose: 12.5 mg/kg/injection, schedule: Q01DX009 (ip), vehicle: saline with Tween-80
[12] = endpoint: mean survival time, dose: 25.0 mg/kg/injection, schedule: Q01DX009 (ip), vehicle: saline with Tween-80
[13] = endpoint: mean survival time, dose: 50.0 mg/kg/injection, schedule: Q01DX009 (ip), vehicle: saline with Tween-80
[14] = endpoint: mean survival time, dose: 100.0 mg/kg/injection, schedule: Q01DX009 (ip), vehicle: saline with Tween-80
[15] = endpoint: mean survival time, dose: 200.0 mg/kg/injection, schedule: Q01DX009 (ip), vehicle: saline with Tween-80

In the case of CC(=O)OCCN1CCN(CCCN2c3ccccc3Sc3ccc(C(F)(F)F)cc32)CC1, the T/C (endpoint: mean survival time, dose: 2.6 mg/kg/injection, schedule: Q03HX024 (ip), vehicle: saline) is reported as 108 % of control, the T/C (endpoint: mean survival time, dose: 4.0 mg/kg/injection, schedule: Q03HX024 (ip), vehicle: saline) is reported as 104 % of control and the T/C (endpoint: mean survival time, dose: 6.0 mg/kg/injection, schedule: Q03HX024 (ip), vehicle: saline) is reported as 121 % of control. For the same compound, the T/C (endpoint: mean survival time, dose: 12.5 mg/kg/injection, schedule: Q01DX001 (ip), vehicle: saline) was 118 % of control and 105 % of control, the T/C (endpoint: mean survival time, dose: 12.5 mg/kg/injection, schedule: Q01DX009 (ip), vehicle: saline) was 100 % of control and the T/C (endpoint: mean survival time, dose: 25.0 mg/kg/injection, schedule: Q01DX001 (ip), vehicle: saline) was 117 % of control and 118 % of control. The T/C (endpoint: mean survival time, dose: 25.0 mg/kg/injection, schedule: Q01DX009 (ip), vehicle: saline) was 95 % of control, the T/C (endpoint: mean survival time, dose: 50.0 mg/kg/injection, schedule: Q01DX001 (ip), vehicle: saline) was 114 % of control and the T/C [1] was 89 % of control. For the same compound, the T/C (endpoint: mean survival time, dose: 100.0 mg/kg/injection, schedule: Q01DX001 (ip), vehicle: saline) was 109 % of control.

For O=C(COCC(=O)N/N=C/c1ccc(Cl)c(Cl)c1)N/N=C/c1ccc(Cl)c(Cl)c1, the T/C [2] was 94 % of control, the T/C [3] was 94 % of control and the T/C [4] was 96 % of control.

With CC[C@@]1(OC(=O)C(N)CCCCN)C(=O)OCc2c1cc1n(c2=O)Cc2cc3ccccc3nc2-1 (stereo partly specified) the T/C (endpoint: median survival time, dose: 7.29 mg/kg/injection, schedule: Q04DX002 (ip), vehicle: water) was 114 % of control, the T/C (endpoint: median survival time, dose: 10.94 mg/kg/injection, schedule: Q04HX004 (iv), vehicle: water) was 165 % of control and 178 % of control and the T/C (endpoint: median survival time, dose: 14.58 mg/kg/injection, schedule: Q04DX002 (ip), vehicle: water) was 122 % of control. For the same compound, the T/C (endpoint: median survival time, dose: 21.87 mg/kg/injection, schedule: Q04HX004 (iv), vehicle: water) was 197 % of control and 201 % of control, the T/C (endpoint: median survival time, dose: 29.17 mg/kg/injection, schedule: Q04DX002 (ip), vehicle: water) was 188 % of control and 204 % of control and the T/C (endpoint: median survival time, dose: 58.33 mg/kg/injection, schedule: Q04DX002 (ip), vehicle: water) was 231 % of control and 253 % of control. The T/C (endpoint: median survival time, dose: 116.7 mg/kg/injection, schedule: Q04DX002 (ip), vehicle: water) was 214 % of control.

In the case of N#Cc1cn(C2CCCCC2)c2ncccc12, the T/C [5] is reported as 113 % of control and the T/C [6] is reported as 97 % of control.

In the case of COC(=O)c1ccc([N+](=O)[O-])cc1C(=O)OC, the T/C [7] is reported as 100 % of control, the T/C [8] is reported as 108 % of control and the T/C [9] is reported as 102 % of control.

For COc1ccc(OC)c(/C=C/c2ccnc3ccccc23)c1, the T/C (endpoint: median survival time, dose: 50.0 mg/kg/injection, schedule: Q01DX009 (ip), vehicle: saline with Tween-80) was 102 % of control, the T/C (endpoint: median survival time, dose: 100.0 mg/kg/injection, schedule: Q01DX009 (ip), vehicle: saline with Tween-80) was 101 % of control and the T/C (endpoint: median survival time, dose: 200.0 mg/kg/injection, schedule: Q01DX009 (ip), vehicle: saline with Tween-80) was 108 % of control. The T/C (endpoint: median survival time, dose: 400.0 mg/kg/injection, schedule: Q01DX009 (ip), vehicle: saline with Tween-80) was 113 % of control.

For C=C(Cc1ccccc1)C(=O)O, the T/C (endpoint: mean survival time, dose: 25.0 mg/kg/injection, schedule: Q04DX002 (ip), vehicle: saline with Tween-80) was 92 % of control, the T/C (endpoint: mean survival time, dose: 50.0 mg/kg/injection, schedule: Q04DX002 (ip), vehicle: saline with Tween-80) was 92 % of control and the T/C [10] was 95 % of control.

In the case of CCOC(=O)c1c([N+](=O)[O-])cnn1C1OC(COC(C)=O)C(OC(C)=O)C1OC(C)=O (stereo unspecified), the T/C (endpoint: median survival time, dose: 8.75 mg/kg/injection, schedule: Q01DX005 (ip), vehicle: distilled water + Tween-80) is reported as 104 % of control, the T/C (endpoint: median survival time, dose: 17.5 mg/kg/injection, schedule: Q01DX005 (ip), vehicle: distilled water + Tween-80) is reported as 107 % of control and the T/C (endpoint: median survival time, dose: 35.0 mg/kg/injection, schedule: Q01DX005 (ip), vehicle: distilled water + Tween-80) is reported as 96 % of control. The T/C (endpoint: median survival time, dose: 70.0 mg/kg/injection, schedule: Q01DX005 (ip), vehicle: distilled water + Tween-80) was 101 % of control and the T/C (endpoint: median survival time, dose: 140.0 mg/kg/injection, schedule: Q01DX005 (ip), vehicle: distilled water + Tween-80) was 101 % of control.

With Brc1ccc(-c2csc(Nc3nc(-c4ccc(Br)cc4)cs3)n2)cc1 the T/C [11] was 86 % of control, the T/C [12] was 96 % of control and the T/C (endpoint: mean survival time, dose: 25.0 mg/kg/injection, schedule: Q04DX003 (ip), vehicle: saline with Tween-80) was 97 % of control. For the same compound, the T/C [13] was 96 % of control, the T/C (endpoint: mean survival time, dose: 50.0 mg/kg/injection, schedule: Q04DX003 (ip), vehicle: saline with Tween-80) was 87 % of control and the T/C [7] was 88 % of control. The T/C [9] was 92 % of control.

In the case of c1cc2c(ncn3nnnc23)[nH]1, the T/C (endpoint: mean survival time, dose: 25.0 mg/kg/injection, schedule: Q01DX009 (ip), vehicle: Klucel (hydroxypropylcellulose) (HPC)) is reported as 91 % of control, the T/C (endpoint: mean survival time, dose: 50.0 mg/kg/injection, schedule: Q01DX009 (ip), vehicle: Klucel (hydroxypropylcellulose) (HPC)) is reported as 99 % of control and the T/C (endpoint: mean survival time, dose: 100.0 mg/kg/injection, schedule: Q01DX009 (ip), vehicle: Klucel (hydroxypropylcellulose) (HPC)) is reported as 86 % of control.

In the case of CN(C)OC(=O)Nc1ccc([N+](=O)[O-])cc1, the T/C [10] is reported as 97 % of control, the T/C (endpoint: mean survival time, dose: 200.0 mg/kg/injection, schedule: Q04DX002 (ip), vehicle: saline with Tween-80) is reported as 112 % of control and the T/C (endpoint: mean survival time, dose: 400.0 mg/kg/injection, schedule: Q04DX002 (ip), vehicle: saline with Tween-80) is reported as 108 % of control.

In the case of O=C(COc1cccc(Cl)c1)NCc1ccc(NC(=O)c2ccc(S(=O)(=O)F)cc2)cc1, the T/C [2] is reported as 96 % of control, the T/C [3] is reported as 91 % of control and the T/C [4] is reported as 87 % of control.

With C[n+]1ccccc1CCc1cccc[n+]1C the T/C [1] was 100 % of control, the T/C (endpoint: mean survival time, dose: 100.0 mg/kg/injection, schedule: Q01DX009 (ip), vehicle: saline) was 100 % of control and the T/C (endpoint: mean survival time, dose: 200.0 mg/kg/injection, schedule: Q01DX009 (ip), vehicle: saline) was 104 % of control.

With C=C(C)CNC1=C(C)C(=O)C2=C(C1=O)[C@@H](COC(N)=O)[C@]1(O)[C@H]3[C@@H](CN21)N3C (stereo partly specified) the T/C (endpoint: mean survival time, dose: 1.5 mg/kg/injection, schedule: Q01DX001 (ip), vehicle: water) was 97 % of control, the T/C (endpoint: mean survival time, dose: 3.0 mg/kg/injection, schedule: Q01DX001 (ip), vehicle: water) was 97 % of control and the T/C (endpoint: mean survival time, dose: 6.0 mg/kg/injection, schedule: Q01DX001 (ip), vehicle: water) was 103 % of control. The T/C (endpoint: mean survival time, dose: 12.0 mg/kg/injection, schedule: Q01DX001 (ip), vehicle: water) was 98 % of control, the T/C (endpoint: mean survival time, dose: 24.0 mg/kg/injection, schedule: Q01DX001 (ip), vehicle: water) was 106 % of control and the T/C (endpoint: mean survival time, dose: 100.0 mg/kg/injection, schedule: Q01DX001 (ip), vehicle: distilled water + Tween-80) was 156 % of control.

In the case of Cc1ccc(S(=O)(=O)OCC2CC3CCC2C3)cc1 (stereo unspecified), the T/C (endpoint: mean survival time, dose: 100.0 mg/kg/injection, schedule: Q01DX009 (ip), vehicle: other) is reported as 102 % of control, the T/C (endpoint: mean survival time, dose: 200.0 mg/kg/injection, schedule: Q01DX009 (ip), vehicle: other) is reported as 102 % of control and the T/C (endpoint: mean survival time, dose: 400.0 mg/kg/injection, schedule: Q01DX009 (ip), vehicle: other) is reported as 93 % of control.

With COC1OC(CO)C2OC(=O)NC2C1O (stereo unspecified) the T/C [5] was 98 % of control, the T/C [6] was 94 % of control and the T/C (endpoint: mean survival time, dose: 400.0 mg/kg/injection, schedule: Q04DX003 (ip), vehicle: saline) was 100 % of control.

With CCCCN1C(=O)c2c(Cl)c(Cl)c(Cl)c(Cl)c2C1=O the T/C (endpoint: mean survival time, dose: 25.0 mg/kg/injection, schedule: Q04DX002 (ip), vehicle: other) was 90 % of control, the T/C (endpoint: mean survival time, dose: 50.0 mg/kg/injection, schedule: Q04DX002 (ip), vehicle: other) was 90 % of control and the T/C (endpoint: mean survival time, dose: 100.0 mg/kg/injection, schedule: Q04DX002 (ip), vehicle: other) was 86 % of control.

O=C1c2ccccc2C(=O)c2c(Cl)cccc21 was tested, and the T/C [14] was 88 % of control, the T/C [7] was 93 % of control and the T/C [15] was 86 % of control. For the same compound, the T/C [8] was 93 % of control, the T/C (endpoint: mean survival time, dose: 400.0 mg/kg/injection, schedule: Q01DX009 (ip), vehicle: saline with Tween-80) was 90 % of control and the T/C [9] was 91 % of control.

For CCOC(=O)/C=C\C1CCCCC1, the T/C [13] was 93 % of control, the T/C [14] was 108 % of control and the T/C [15] was 104 % of control.

CCC(C)(C)c1ccc(O)cc1 was tested, and the T/C [7] was 104 % of control and the T/C [8] was 98 % of control.

CC(=O)NC(Cc1ccccc1)C(C)=O (stereo unspecified) was tested, and the T/C [2] was 102 % of control, the T/C [3] was 98 % of control and the T/C [4] was 102 % of control.

BrCC[Se]c1ccccc1 was tested, and the T/C (endpoint: mean survival time, dose: 3.12 mg/kg/injection, schedule: Q01DX009 (ip), vehicle: saline with Tween-80) was 105 % of control, the T/C (endpoint: mean survival time, dose: 6.25 mg/kg/injection, schedule: Q01DX009 (ip), vehicle: saline with Tween-80) was 111 % of control and the T/C [11] was 102 % of control. The T/C [12] was 115 % of control, the T/C [13] was 107 % of control and the T/C [14] was 104 % of control.
